These results are taken from patent publication US8283375B2, “2, 6 xylidine derivatives for the treatment of pain” (Krisani Biosciences (P) Ltd., priority 2011, dated 2012).

This experiment concerns spinal nerve ligation model for neuropathic pain in rats. Description: Von Frey test for mechanical allodynia in Chung spinal nerve (L5-L6) ligation model. The format is in vivo, SD rats. The following applies: 150 mg/kg; for analgesic efficacy on mechanical allodynia compared to Vehicle (conclusion in words): b105: 2 and 4.5 hours post-treatment on day 14 and 4.5 hours on day 21, b109: 2 hours post-treatment on days 14 and 21. The source says: Experimental animals were male SD rats with a starting weight of 230-250 grams. Total number of animals were n=90 for surgery and n=60 after selection. The animals were caged in groups of 3 in a temperature and humidity controlled area. They were maintained on a 12 hr light/dark cycle and had ad libitum access to food and water.
Neuropathic pain inducement was done by following principles of Chung induced model. The SD rats were anesthetized using ketamine/xylazine sodium. The rats were shaved and placed in prone position for surgery. The L5-L6 spinal nerves were surgically litigated. The rats were returned to their cages for recuperation and recovery under comfortable warm conditions using heat lamps.
After seven days of surgery a pre selection was performed. Animals that indicate signs of post operative pain were to be selected to proceed. Pain is detected by observing when one or more of the criteria are met as follows. Licking of the operated paw, accompanied by gentle biting or pulling on the nails with the mouth; placing the leg in the air; bearing weight on the side contra-lateral to the nerve injury; deformities of the hind paw and abnormal posture and walking; weakness of the left hind paw. […] However, the animal must be able to move its leg to ensure that the L4 spinal nerve is intact. If the animal cannot move its leg, it was excluded from the study.
Second level of selection of the rats was done on day 14 after the surgery. Von Frey test was performed on the preselected rats after day 7 on day 14. Using Von Frey methodology, animals with a pain threshold of ≦26 g for the operated leg will be included in the study. After this selection step, the animals were randomly placed into their experimental groups.
Blank, positive control and test compound: Blank was just the medium used for dissolving other compounds. The positive control was Gabapentin and the test compound was the final compound of formula 1 discussed in the instant disclosure. Three types of experimental groups were formed. Different types of chemicals such as Vehicle and Control were used to determine the efficacy of the chemicals as well comparison of the instant disclosed compound of formula 1, with a positive control was performed. The final compound of the instant disclosure was administered at 100 mg/kg and 150 mg/kg body weight as two different groups. The Gabapentin was administered at 150 mg/kg body weight.
On day 14 blank compound and final compound will be administered once daily starting on study day 14 through study day 21. Gabapentin, the positive control, will be administered 2 hours prior to pain testing on study days 14 and 21. […]
Pain Response Evaluation: Pain response was evaluated using Von Frey test for mechanical allodynia. […]

`CCN(CCOC(=O)CCCCC1CCSS1)CC(=O)Nc1c(C)cccc1C` (stereo not shown) [KRB-5b]: the “duration of analgesic activity / activity compared with gabapentin (in words)” value is listed as “prolonged analgesic activity compared to gabapentin” and the “analgesic efficacy on mechanical allodynia compared to Vehicle (conclusion in words)” value is reported as “effective as a pain analgesic item”. The “analgesic efficacy on mechanical allodynia compared to Vehicle (conclusion in words)” value (listed as compound of formula 1) was “effective in treating the spinal nerve ligation model for neuropathic pain in rats”.

In the case of `NCC1(CC(=O)O)CCCCC1` [Gabapentin, reference compound], the “duration of analgesic activity / activity compared with gabapentin (in words)” value is given as “active only at 2 hours post dosing”.
